Here are results for 21 molecules from patent US12162848B2, “Inhibitors of protein tyrosine phosphatase, compositions, and methods of use” (BRISTOL-MYERS SQUIBB COMPANY, priority 2022, dated 2024).

pEC50, pIC50: −log10 of the molar value.

The target in one assay is T1, PTPN2 enzyme (Homo sapiens, UniProt P17706).
T1 sequence (P17706 1-415): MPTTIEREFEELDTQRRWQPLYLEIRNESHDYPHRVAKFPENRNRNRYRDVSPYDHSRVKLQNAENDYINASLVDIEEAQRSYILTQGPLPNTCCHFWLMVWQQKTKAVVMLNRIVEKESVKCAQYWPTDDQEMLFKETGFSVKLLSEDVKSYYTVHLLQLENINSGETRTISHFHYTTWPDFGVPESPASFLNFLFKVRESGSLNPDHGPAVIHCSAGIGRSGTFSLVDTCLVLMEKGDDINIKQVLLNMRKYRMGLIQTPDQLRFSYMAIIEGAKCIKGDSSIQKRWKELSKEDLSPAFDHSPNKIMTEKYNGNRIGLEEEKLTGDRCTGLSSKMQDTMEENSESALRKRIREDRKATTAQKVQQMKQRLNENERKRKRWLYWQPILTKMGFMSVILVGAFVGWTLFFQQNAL
As to the kind of experiment: PhosphoSens PTPN2 biochemical assay. The settings on record: substrate AQT0264 20 μM, room temperature; read-out: PTPN2 BCHEM IC50. As for the experimental part:
A PhosphoSens® kinase assay was performed as described by the vendor (AssayQuant Technologies, Marlborough, MA). Briefly, 1000×solutions of compounds were prepared in DMSO via serial dilution of the 10 mM DMSO stocks using 3-fold intervals in a 384-well reagent plate. 50 nL of the compound dilution series was then added to the corresponding wells of a 384-well assay plate. […] of 1.25×substrate (AQT0264) in 1× assay buffer (50 mM HEPES pH 7.5, 500 μM EGTA, […] MgCl2, 0.01% Brij-35, 1% Glycerol, 1 mM DTT, and 0.2 mg/mL BSA) was transferred to each well of the assay plate to achieve a final substrate concentration of 20 μM. Finally, […] of 5×PTPN2 enzyme stock was added to each well of the assay plate for a final enzyme concentration of […]. Reaction progress curves were collected by sampling fluorescence intensity at the excitation wavelength 360 nm (λex360) and emission wavelength 480 nm (λem480) every 71 seconds for one hour using a Synergy H4 plate reader (BioTek Instruments/Agilent Technologies, Winooski, VT) at room temperature.

For assay [1], the system named is phosphorylated STAT1 protein levels in B16-F10 cells. In words: Phospho-STAT1 (Tyr701) HTRF assay in IFN-gamma treated B16-F10 cells. The format is cell-based. The settings on record: mouse IFN-gamma 100 ng/mL, 1 hour, read-out: pSTAT1 HTRF B16 EC50. As for the experimental part:
B16-F10 cells (ATCC, Manassas, VA, #CRL-6475) were cultured in DMEM growth medium (ThermoFisher Scientific, Waltham, MA, #11995-040) supplemented with 10% heat inactivated FBS (ThermoFisher Scientific, #16140-071) and 1% pen/strep (ThermoFisher Scientific, #15140-122). The cells were seeded into a white opaque 384-well tissue culture treated microplate (PerkinElmer, Waltham, MA, #6007688) at a density of 10,000 cells/well in 20 uL total volume and incubated overnight at 37 C and 5% CO2. 30 nL of compounds dissolved in DMSO were then transferred from a source plate into target wells with the Echo650 acoustic liquid handler (Beckman Coulter, Indianapolis, IN). Negative control wells received 30 nL of DMSO only (0.15% final concentration). Plates were returned to the incubator for 1 hour and then cells treated with either 5 uL of growth medium or 5 uL of growth medium containing 500 ng/mL of recombinant mouse IFN-gamma protein (R&D Systems, Minneapolis, MN, #485-MI/CF, 100 ng/mL final concentration) using the Assist automated pipetting platform (INTEGRA Biosciences, Hudson, NH). Plates were incubated at 37 C for 1 hour and assayed for phosphorylated STAT1 protein levels with the phospho-STAT1 (Tyr701) HTRF kit (Cisbio, Bedford, MA, #63ADK026PEH) according to manufacturer's instructions.
Background: TR-FRET usually uses a lanthanide donor and a delayed reading to cut background.

In another assay the test system is B16-F10 cells. In words: Cell proliferation assay (CellTiter-Glo) in IFN-gamma treated B16-F10 cells. The settings on record: 120 h, mouse IFN-gamma 10 ng/mL, read-out: PTPN2 Prolif 5d B16F10 EC50. The assay is classed as cell-based. As for the experimental part: B16-F10 cells (ATCC, Manassas, VA, #CRL-6475) were cultured in DMEM growth medium (ThermoFisher Scientific, Waltham, MA, #11995-040) supplemented with 10% heat inactivated FBS (ThermoFisher Scientific, #16140-071) and 1% pen/strep (ThermoFisher Scientific, #15140-122). The cells were seeded into two white opaque 384-well tissue culture treated microplates (PerkinElmer, Waltham, MA, #6007688) at a density of 100 cells/well in 20 uL total volume and incubated overnight at 37 C and 5% CO2. 30 nL of compounds dissolved in DMSO were then transferred from a source plate into target wells with the Echo650 acoustic liquid handler (Beckman Coulter, Indianapolis, IN). Negative control wells received 30 nL of DMSO only (0.15% final concentration). Plates were returned to the incubator for 1 hour and then cells treated with either 5 uL of growth medium or 5 uL of growth medium containing 50 ng/mL of recombinant mouse IFN-gamma protein (R&D Systems, Minneapolis, MN, #485-MI/CF, 10 ng/mL final concentration) using the Assist automated pipetting platform (INTEGRA Biosciences, Hudson, NH). Plates were incubated at 37 C for 4 days and cell proliferation assayed with the CellTiter-Glo reagent (Promega, Madison, WI, #G7573, 25 uL per well). […] Off-target compound mediated cytotoxicity was identified by checking for growth inhibition in the absence of IFNg.

Consider `O=C1CN(c2c(O)cc(C3CCNCC3)cc2F)S(=O)(=O)N1` [EXAMPLE 2, 5-[2-fluoro-6-hydroxy-4-(4-piperidyl)phenyl]-1,1-dioxo-1,2,5-thiadiazolidin-3-one], for which the pIC50 at PTPN2 enzyme is 5.89.

As to `CN1CCCC(c2cc(O)c(N3CC(=O)NS3(=O)=O)c(F)c2)C1` (stereo not drawn) [EXAMPLE 3, 5-(2-fluoro-6-hydroxy-4-(1-methylpiperidin-3-yl)phenyl)-1,2,5-thiadiazolidin-3-one 1,1-dioxide], on PTPN2 enzyme, the pIC50 was 5.33.

For the molecule `CC(C)CCN1CCC(c2cc(O)c(N3CC(=O)NS3(=O)=O)c(F)c2)CC1` [EXAMPLE 6, 5-[2-fluoro-6-hydroxy-4-(1-isopentyl-4-piperidyl)phenyl]-1,1-dioxo-1,2,5-thiadiazolidin-3-one], the pIC50 at PTPN2 enzyme was 5.56.

Regarding `COc1ncccc1-c1cc(O)c(N2CC(=O)NS2(=O)=O)c(F)c1` [EXAMPLE 25, 5-[2-fluoro-6-hydroxy-4-(2-methoxy-3-pyridyl)phenyl]-1,1-dioxo-1,2,5-thiadiazolidin-3-one], the pEC50 in assay [1] is 5.01. In addition, the pIC50 on PTPN2 enzyme is 6.58.

Take `CC(=O)N1CCN(Cc2cc(O)c(N3CC(=O)NS3(=O)=O)c(F)c2)CC1` [EXAMPLE 38, 5-(4-((4-acetylpiperazin-1-yl)methyl)-2-fluoro-6-hydroxyphenyl)-1,2,5-thiadiazolidin-3-one 1,1-dioxide]: the pIC50 on PTPN2 enzyme was 7.08.

With `N#Cc1cc(CNCc2cc(O)c(N3CC(=O)NS3(=O)=O)c(F)c2)ccc1F` [EXAMPLE 45, 2-fluoro-5-[[[3-fluoro-5-hydroxy-4-(1,1,4-trioxo-1,2,5-thiadiazolidin-2-yl)phenyl]methylamino]methyl]benzonitrile], in assay [1], the pEC50 was 5.73. For the same molecule, the pIC50 on PTPN2 enzyme was 7.15.

For the molecule `CC(C)OC1CCN(Cc2cc(O)c(N3CC(=O)NS3(=O)=O)c(F)c2)CC1` [EXAMPLE 54, 5-[2-fluoro-6-hydroxy-4-[(4-isopropoxy-1-piperidyl)methyl]phenyl]-1,1-dioxo-1,2,5-thiadiazolidin-3-one], the pEC50 in assay [1] is 4.88. Moreover, the pIC50 on PTPN2 enzyme is 6.48.

`COCCC1CCN(Cc2cc(O)c(N3CC(=O)NS3(=O)=O)c(F)c2)CC1` [EXAMPLE 55, 5-[2-fluoro-6-hydroxy-4-[[4-(2-methoxyethyl)-1-piperidyl]methyl]phenyl]-1,1-dioxo-1,2,5-thiadiazolidin-3-one]: the negative-log EC50 (pEC50) in assay [1] was 4.95. For the same molecule, the pIC50 on PTPN2 enzyme is 6.40.

Turning to `CCCCC1CCN(Cc2cc(O)c(N3CC(=O)NS3(=O)=O)c(F)c2)CC1` [EXAMPLE 57, 5-[4-[(4-butyl-1-piperidyl)methyl]-2-fluoro-6-hydroxy-phenyl]-1,1-dioxo-1,2,5-thiadiazolidin-3-one], the pEC50 in assay [1] is 4.96. For the same molecule, the pIC50 on PTPN2 enzyme was 6.42.

In the case of `CC(=O)N1CCC[C@@H](NCc2cc(O)c(N3CC(=O)NS3(=O)=O)c(F)c2)C1` [EXAMPLE 68, 5-[4-[[[(3R)-1-acetyl-3-piperidyl]amino]methyl]-2-fluoro-6-hydroxy-phenyl]-1,1-dioxo-1,2,5-thiadiazolidin-3-one], in assay [1], the pEC50 is 5.18. On PTPN2 enzyme, the pIC50 is 7.49.

Take `O=C1CN(c2c(O)cc(CN[C@@H]3CCCN(S(=O)(=O)c4cccc(F)c4)C3)cc2F)S(=O)(=O)N1` [EXAMPLE 69, 5-[2-fluoro-4-[[[(3R)-1-(3-fluorophenyl)sulfonyl-3-piperidyl]amino]methyl]-6-hydroxy-phenyl]-1,1-dioxo-1,2,5-thiadiazolidin-3-one]: the pEC50 in assay [1] was no more than 4.82. The pIC50 on PTPN2 enzyme was 7.06.

`O=C1CN(c2c(O)cc(CN[C@H]3CCCN(S(=O)(=O)c4cccc(F)c4)C3)cc2F)S(=O)(=O)N1` [EXAMPLE 70, 5-[2-fluoro-4-[[[(3S)-1-(3-fluorophenyl)sulfonyl-3-piperidyl]amino]methyl]-6-hydroxy-phenyl]-1,1-dioxo-1,2,5-thiadiazolidin-3-one]: the pEC50 in assay [1] was no more than 4.82. In addition, the pIC50 on PTPN2 enzyme is 7.52.

For the molecule `CN(Cc1cc(O)c(N2CC(=O)NS2(=O)=O)c(F)c1)C1CCC(C)(C)CC1` [EXAMPLE 77, 5-[4-[[(4,4-dimethylcyclohexyl)-methyl-amino]methyl]-2-fluoro-6-hydroxy-phenyl]-1,1-dioxo-1,2,5-thiadiazolidin-3-one], in assay [1], the pEC50 is no more than 4.82.

As for `CCCN(Cc1cc(O)c(N2CC(=O)NS2(=O)=O)c(F)c1)CC1CCC1` [EXAMPLE 78, 5-[4-[[cyclobutylmethyl(propyl)amino]methyl]-2-fluoro-6-hydroxy-phenyl]-1,1-dioxo-1,2,5-thiadiazolidin-3-one], the pEC50 in assay [1] is no more than 4.82. The pIC50 at PTPN2 enzyme was 6.09.

`N#Cc1ccc(Cl)c(NCc2cc(O)c(N3CC(=O)NS3(=O)=O)c(F)c2)c1` [EXAMPLE 81, 4-chloro-3-[[3-fluoro-5-hydroxy-4-(1,1,4-trioxo-1,2,5-thiadiazolidin-2-yl)phenyl]methylamino]benzonitrile]: the pEC50 (in assay [1]; with B16-F10 cells) was no more than 4.82 each time.

`O=C1CN(c2c(O)cc(CNc3cc(C4CC4)ccn3)cc2F)S(=O)(=O)N1` [EXAMPLE 82, 5-[4-[[(4-cyclopropyl-2-pyridyl)amino]methyl]-2-fluoro-6-hydroxy-phenyl]-1,1-dioxo-1,2,5-thiadiazolidin-3-one]: the pEC50 in assay [1] was 6.71. The pIC50 on PTPN2 enzyme is 8.00.

In the case of `O=C1CN(c2c(O)cc(NC3CCNCC3)cc2F)S(=O)(=O)N1` [EXAMPLE 88, 5-(2-fluoro-6-hydroxy-4-(piperidin-4-ylamino)phenyl)-1,2,5-thiadiazolidin-3-one 1,1-dioxide], on PTPN2 enzyme, the pIC50 was 5.92.

In the case of `CN(C)CCNC(=O)c1cc(O)c(N2CC(=O)NS2(=O)=O)c(F)c1` [EXAMPLE 91, N-(2-(dimethylamino)ethyl)-4-(1,1-dioxido-4-oxo-1,2,5-thiadiazolidin-2-yl)-3-fluoro-5-hydroxybenzamide], the pEC50 (in assay [1]; in the assay with B16-F10 cells) was no more than 4.82 throughout.

For `O=C1CN(c2c(O)ccc(CN3CCC(F)CC3)c2F)S(=O)(=O)N1` [EXAMPLE 98, 5-(2-fluoro-3-((4-fluoropiperidin-1-yl)methyl)-6-hydroxyphenyl)-1,2,5-thiadiazolidin-3-one 1,1-dioxide], the pEC50 in assay [1] was no more than 4.82.

In the case of `CN(C)C1CCN(Cc2ccc(O)c(N3CC(=O)NS3(=O)=O)c2F)CC1` [EXAMPLE 102, 5-(3-((4-(dimethylamino)piperidin-1-yl)methyl)-2-fluoro-6-hydroxyphenyl)-1,2,5-thiadiazolidin-3-one 1,1-dioxide], the pEC50 in assay [1] is no more than 4.82.

Regarding `CC(C)CCN1CCN(Cc2ccc(O)c(N3CC(=O)NS3(=O)=O)c2F)CC1` [EXAMPLE 104, 5-[2-fluoro-6-hydroxy-3-[(4-isopentylpiperazin-1-yl)methyl]phenyl]-1,1-dioxo-1,2,5-thiadiazolidin-3-one], the pEC50 in assay [1] was no more than 4.82.

The term pIC50 denotes the negative decadic logarithm of the IC50, by convention in mol/L. By pEC50 is commonly meant −log10 of the EC50, conventionally taken in molar units.
